Measured values taken from patent US9884812B2, “Use of DDX3X inhibitors for the treatment of pneumovirus infections” (priority 2014, dated 2018).
Values after ≈ are worked out from the molar mass of the structure shown. Where two headings read alike, the source gives them in different places.

How the values were obtained:
[1] = Solubility in cell medium; format: physicochemical; settings: for Solubility in cell medium: solution of ligand in DMSO (20 mM) diluted in cell media to 100 μM, scale from 'very poor' (almost insoluble) to 'very good' (freely soluble over extended periods at 4° C.); for Solubility behaviour in cell medium: at 100 μM
HEp2 or BSC1 cells = assay: Toxicity to cells in the TCID50 screen (mock control); format: cell-based; settings: cellular RSV TCID50 assay tables
Procedure: This method provides a rapid approach to initially screen compounds and was developed as an increased number of compounds were synthesised. […] Virus was then added over 5 different half log dilutions starting at a multiplicity of infection of 0.02 plus mock control. Three dilutions of compound plus a DMSO control were screened per plate. […] Identical plate repeats for each compound dilution were fixed in subsequent days as indicated.

hRSV (strain A2) = assay: Plaque inhibition assay, hRSV; format: cell-based, human respiratory syncytial virus; settings: for Plaque size relative to DMSO control: hRSV plaque assay; for IC50: human respiratory syncytial virus, read-out: IC50 (plaque number vs DMSO control)
Procedure: Example: Plaque inhibition assay
(§1) An identical assay procedure was carried out for hRSV (strain A2) bovine RS (strain Snook) and PVM (strain 15). Virus stocks were diluted 10 fold in GMEM (Invitrogen) so that the wells containing cells received sufficient virus to generate approximately 2000, 200 and 20 plaques per well.
The overlay medium also contained the compound to be tested at appropriate concentrations. Typically the 6 concentrations of the test compounds used were: 100 μM, 31.6 μM, 10 μM, 3.16 μM, 1 μM and 0.316 μM.
Stocks of the test compounds were prepared in DMSO (Sigma) (carrier). Each stock compound was diluted 1 in 200 in overlay medium to give dilutions stated above.
(§2) Cells of a standard cell line known to support pneumovirus replication (typically HEp2 or BSC1 cells) were grown in standard 12 well plates at 37° C. in an atmosphere of 5% (v/v) CO2 until confluent. Medium was aspirated from the cells and replaced with 200 μl aliquots of virus. Aliquots were prepared by diluting virus stocks 10-fold in GMEM (Invitrogen) as described above with no FCS. A mock (no virus) was also set up to test cell viability. The virus was incubated with the cells for 1 hour at 33° C. with gentle rocking every 5-10 minutes. The inocula were removed and 2 ml of overlay medium was added. Overlay medium was either test (plus compound) or control (medium alone or medium containing DMSO). The plates were incubated at 33° C. for 4-8 days to allow plaques to develop as indicated. A volume of 1 ml of additional overlay medium (containing the test compound as appropriate) was added every 3 days. All virus dilutions were carried out with each concentration of test compound, or treated as controls, and each was carried out in triplicate.
(§3) Following incubation, cells were fixed by addition of an equal volume of 4% (v/v) glutaraldehyde (Sigma) in PBS with further incubation for a minimum of 2 hours. The fixing solution was washed off under a slow flowing stream of water and 1 ml of crystal violet (0.075% w/v: Sigma) was added and left for 20 minutes at room temperature. The crystal violet was removed and the fixed cell monolayers washed. Plates were air dried. Plaques counts were recorded from wells with >20 and <200 in number. These numbers provide the most robust statistical reliability for viable plaque counts.
This experimental approach screens the ability of compounds to block the formation of plaques.

Bovine RSV = assay: Plaque inhibition assay, bovine RSV; format: cell-based, bovine respiratory syncytial virus; settings: for IC50: bovine RSV, 6-day assay, HEp2 cells; for Plaque size: bRSV plaque assay
Procedure: as §1, §2, §3
(§4) Compounds 1, 4 and 6 were also tested against bovine RSV and pneumonia virus of mice (PVM).
The compounds were tested with a 6-day assay using HEp2 cells.

PVM (strain 15) = assay: Plaque inhibition assay, PVM; format: cell-based, pneumonia virus of mice; settings: for Plaque size: PVM plaque assay; for IC50: murine pneumonia virus, PVM, HEp2 cells
Procedure: as §1, §2, §3, §4
A full plaque assay was carried out for compound 4 using HEp2 cells, with assays of 5 days and 6 days after incubation.

HEp2 cells [2] = assay: MTT toxicity assay; format: cell-based; settings: for Appearance of cell monolayers: compared with carrier controls
Procedure: All experiments shown were carried out in HEp2 cells. Cells were grown in 96 well plates overnight as previously described in 10% FCS medium to 95% confluence level. The medium was aspirated off and replaced with 200ul media with 2% FCS +/− compounds in DMSO carrier as indicated at an identical dilution series to that used in the plaque assays. 8 wells were used per compound/carrier alone dilution. An additional 2 rows of 8 cells were grown in medium alone for reference and subsequently 8 would be used as a cell death control as described below. Cells were incubated at 33° C. as indicated. If the incubation period exceeded 4 days the medium was replaced with the appropriate amount of fresh medium plus compound.
MTT assays were commenced 4 hours before the time period expired. Here 20 uL of MTT [(3-{4,5-dimethylthiazol-2-yl}-2,5-diphenyltetrazolium bromide)] solution (7.5 mg/ml in
PBS) was added. […] The cells were placed back in the incubator at 33° C. After 4 hours, 100 μL of a stop solution (50% formamide, 20% w/v SDS) was added and pipetted to dissolve the substrate. Plates were then left overnight to allow the bubbles to disappear and the OD was recorded at 595 nm. Following subtraction of background solution colour (cell death control), the optical density was expressed as a percentage compared to the DMSO control on each appropriate plate.

RSV = assay: 96 well plate TCID50 (cellular RSV TCID50 assay); format: cell-based; settings: for Activity: summary of activities in cellular RSV TCID50 assay, symbols − to +++++ not defined
Procedure: This method provides a rapid approach to initially screen compounds and was developed as an increased number of compounds were synthesised. Cells of a standard cell line known to support pneumovirus replication (typically HEp2 or BSC1 cells) were grown to 95% confluence in a 96 well plate. Virus was then added over 5 different half log dilutions starting at a multiplicity of infection of 0.02 plus mock control. Three dilutions of compound plus a DMSO control were screened per plate. […] Identical plate repeats for each compound dilution were fixed in subsequent days as indicated.
Stained plates were read at 595 nm, higher optical density (OD) readings indicate more viable cells remain.

BSC1 cells = assay: Toxicity observed in plaque assay, BSC1 cells; format: cell-based; settings: at 100 μM
Procedure: as §2

HEp2 cells [3] = assay: Toxicity observed in plaque assay, HEp2 cells; format: cell-based
Procedure: as §2

[4] = HEp-2, 120 h, hRSV, HEp2 cells, Day 5
[5] = Bovine orthopneumovirus, HEp-2, 144 h, read-out: IC50

With `Cc1ccccc1NC(=O)Nc1ccc(C#N)cc1` [Compound 6, 1-(4-cyanophenyl)-3-(2-methylphenyl)urea] the “Solubility in cell medium” value [1] was “good”, the Toxicity (HEp2 or BSC1 cells) was “low” and the “Plaque size relative to DMSO control” value (hRSV (strain A2)) was “significantly reduce the size of plaques”. For the same compound, the “IC50 (plaque number vs DMSO control)” value (hRSV (strain A2); hRSV, HEp2 cells, Day 6) was 50% reduction was not reached, the “IC50 (plaque number vs DMSO control)” value (hRSV (strain A2); hRSV, HEp2 cells, Day 7) was 50% reduction was not reached and the IC50 (hRSV (strain A2); [4]) was 10 µM. For the same compound, the IC50 (Bovine RSV; [5]) was 15 µM, the Plaque size (Bovine RSV) was “significantly reduce the size of plaques” and the Plaque size (PVM (strain 15)) was “significantly reduce the size of plaques”. For the same compound, the “Appearance of cell monolayers” value (HEp2 cells [2]) was “appeared intact”.

For `COc1ccc(NC(=O)Nc2ccccc2C)cc1OC` [Compound 45, 1-(3,4-dimethoxyphenyl)-3-(o-tolyl)urea], the Activity (RSV) was “Inactive”, the “Solubility in cell medium” value [1] was “Good” and the Toxicity (HEp2 or BSC1 cells) was “Low”.

In the case of `Cc1ccccc1NC(=O)Nc1cccc(Cl)c1` [Compound 39, 1-(3-chlorophenyl)-3-(o-tolyl)urea], the “Solubility behaviour in cell medium” value [1] is reported as “moderately soluble”, the “Solubility in cell medium” value [1] is reported as “Moderate at 100 μM” and the Toxicity (HEp2 or BSC1 cells) is reported as “Some toxicity at 100 μM”. The “Plaque size relative to DMSO control” value (hRSV (strain A2)) was “reduction in plaque numbers (as shown) and size”, the IC50 (hRSV (strain A2); BSC-1, 96 h, hRSV, BSC1 cells, 4 day assay) was 16.5 µM and the “Toxicity in plaque assay” value (BSC1 cells) was “some toxicity”.

For `Cc1ccccc1NC(=O)Nc1cccc(C#N)c1` [Compound 3, 3-(3-cyanophenyl)-1-(2-methylphenyl)urea], the “Solubility in cell medium” value [1] was “good”, the Toxicity (HEp2 or BSC1 cells) was “low” and the “Plaque size relative to DMSO control” value (hRSV (strain A2)) was “much smaller”. For the same compound, the Plaque size (hRSV (strain A2); hRSV, HEp2 cells, 5 days, at 31.6 μM and to some extent 10 μM) was “very small” and the IC50 (hRSV (strain A2); [4]) was roughly 50 µM.

For `Cc1ccccc1NC(=O)Nc1ccc(I)cc1` [Compound 44, 1-(4-iodophenyl)-3-(o-tolyl)urea], the Activity (RSV) was “Inactive”, the “Solubility in cell medium” value [1] was “Moderate at 100 μM” and the Toxicity (HEp2 or BSC1 cells) was “Low”.

With `Cc1ccccc1NC(=O)Nc1cccc([N+](=O)[O-])c1` [Compound 1, 3-(2-methylphenyl)-1-(3-nitrophenyl)urea] the “Activity in the TCID50 assay at higher concentration” value (RSV; at >10 μM) was “no increase in activity”, the “Solubility behaviour in cell medium” value [1] was “appearance of insolublity” and the solubility ([1]; cell medium, aqueous buffer, kinetic from dmso stock, read-out: Upper limit of soluble concentration) was 5 to 10 µM (≈ 1.36 to 2.71 µg/mL). For the same compound, the “Solubility in cell medium” value [1] was “poor”, the Toxicity (HEp2 or BSC1 cells) was “toxic at 32 μM” and the “Plaque size relative to DMSO control” value (hRSV (strain A2)) was “significantly reduce the size of plaques”. The “Plaque size relative to DMSO control” value (hRSV (strain A2); listed as compound 1) was “smaller than in the DMSO control”, the Plaque size (Bovine RSV) was “significantly reduce the size of plaques” and the IC50 (Bovine RSV) was “precipitated out before 50% reduction was seen”. For the same compound, the Plaque size (PVM (strain 15)) was “significantly reduce the size of plaques”, the “Sensitivity in MTT assay” value (HEp2 cells [2]; days 3 and 4, disappeared after 5 days) was “increased sensitivity” and the “Concentration above which inhibition of activity is seen (MTT)” value (HEp2 cells [2]; over the time course) was “above 10 μM”.

In the case of `Cc1ccccc1NC(=O)Nc1cccc(C(F)(F)F)c1` [Compound 40, 1-(o-tolyl)-3-(3-(trifluoromethyl)phenyl)urea], the “Solubility in cell medium” value [1] is reported as “Good”, the Toxicity (HEp2 or BSC1 cells) is reported as “Low” and the “Inhibition of plaque formation” value (hRSV (strain A2); hRSV, BSC1 cells, 4 day assay) is reported as “moderate inhibition”. The “Toxicity in plaque assay” value (BSC1 cells) was “low toxicity”.

With `CSc1cccc(NC(=O)NCCCOCCOCCOCCCNC(=O)Nc2cccc(SC)c2)c1` [Compound 36, 1-[3-(methylsulfanyl)phenyl]-3-[3-(2-{2-[3-({[3-(methylsulfanyl)-phenyl]carbamoyl}amino)propoxy]ethoxy}ethoxy)propyl]urea] the “Solubility in cell medium” value [1] was “good” and the melting point was 106 to 108 °C.

For `Cc1ccccc1NC(=O)Nc1ccc(SC(F)(F)F)cc1` [Compound 42, 1-(o-tolyl)-3-(4-((trifluoromethyl)thio)phenyl)urea], the Activity (RSV) was “Plaques reduced”, the “Solubility in cell medium” value [1] was “Good” and the Toxicity (HEp2 or BSC1 cells) was “Very toxic at 100 μM”.

In the case of `CSc1cccc(NC(=O)Nc2ccccc2C)c1` [Compound 4, 1-(2-methylphenyl)-3-[3-(methylsulfanyl)phenyl]urea], the “Solubility in cell medium” value [1] is reported as “good”, the Toxicity (HEp2 or BSC1 cells) is reported as “some toxicity at 100 μM” and the “Plaque size relative to DMSO control” value (hRSV (strain A2)) is reported as “significantly reduce the size of plaques”. It also gave an IC50 (hRSV (strain A2); [4]) of 4.1 µM, an IC50 (hRSV (strain A2); HEp-2, 144 h, hRSV, HEp2 cells, Day 6) of 8.5 µM and an IC50 (hRSV (strain A2); HEp-2, 168 h, hRSV, HEp2 cells, Day 7) of 15 µM. For the same compound, the IC50 (Bovine RSV; [5]) was 80 µM, the Plaque size (Bovine RSV) was “significantly reduce the size of plaques” and the Plaque size (PVM (strain 15)) was “significantly reduce the size of plaques”. The IC50 (PVM (strain 15); HEp-2, 120 h, day 5) was 32 µM, the IC50 (PVM (strain 15); HEp-2, 144 h, day 6) was 100 µM and the “Appearance of cell monolayers” value (HEp2 cells [2]) was “appeared intact”. For the same compound, the “Toxicity in plaque assay” value (HEp2 cells [3]; at 10 μM) was “No obvious toxicity”, the “Toxicity in plaque assay” value (HEp2 cells [3]; at 31.6 μM) was “to some degree” and the “Toxicity in plaque assay” value (HEp2 cells [3]; at 100 μM) was “showed toxicity”.

For `Cc1ccccc1NC(=O)Nc1ccc(OC(F)(F)F)cc1` [Compound 43, 1-(o-tolyl)-3-(4-(trifluoromethoxy)phenyl)urea], the Activity (RSV) was “Plaques reduced”, the “Solubility in cell medium” value [1] was “Good” and the Toxicity (HEp2 or BSC1 cells) was “Toxic at 100 μM”.

For `CSc1ccc(NC(=O)NCCCOCCOCCOCCCNC(=O)Nc2ccc(SC)cc2)cc1` [Compound 37, 1-[4-(methylsulfanyl)phenyl]-3-[3-(2-{2-[3-({[4-(methylsulfanyl)-phenyl]carbamoyl}amino)propoxy]ethoxy}ethoxy)propyl]urea], the “Solubility behaviour in cell medium” value [1] was “some signs of precipitating out of solution”, the “Solubility in cell medium” value [1] was “good” and the Toxicity (HEp2 or BSC1 cells) was “toxic at 50 μM”. The IC50 (hRSV (strain A2); [4]) was 17.5 µM, the “Appearance of cell monolayers” value (HEp2 cells [2]) was “appeared intact” and the “Toxicity in plaque assay” value (HEp2 cells [3]; at 100 μM) was “showed toxicity”.
